Assay results: patent publication US9492471B2, “Methods of treating a disease or disorder associated with Bruton'S Tyrosine Kinase” (Celgene Avilomics Research, Inc., priority 2013, dated 2016)
Like-named read-outs stand apart in the source and are kept apart here.

Columns and labels:
Experiment in all cases: HotSpot kinase profiling
Format in all cases: biochemical
BMPR2 = molecular target: T1, BMPR2 (Homo sapiens, UniProt Q13873)
T1 construct: purchased Reaction Biology Corp
T1 sequence (Q13873 27-1038): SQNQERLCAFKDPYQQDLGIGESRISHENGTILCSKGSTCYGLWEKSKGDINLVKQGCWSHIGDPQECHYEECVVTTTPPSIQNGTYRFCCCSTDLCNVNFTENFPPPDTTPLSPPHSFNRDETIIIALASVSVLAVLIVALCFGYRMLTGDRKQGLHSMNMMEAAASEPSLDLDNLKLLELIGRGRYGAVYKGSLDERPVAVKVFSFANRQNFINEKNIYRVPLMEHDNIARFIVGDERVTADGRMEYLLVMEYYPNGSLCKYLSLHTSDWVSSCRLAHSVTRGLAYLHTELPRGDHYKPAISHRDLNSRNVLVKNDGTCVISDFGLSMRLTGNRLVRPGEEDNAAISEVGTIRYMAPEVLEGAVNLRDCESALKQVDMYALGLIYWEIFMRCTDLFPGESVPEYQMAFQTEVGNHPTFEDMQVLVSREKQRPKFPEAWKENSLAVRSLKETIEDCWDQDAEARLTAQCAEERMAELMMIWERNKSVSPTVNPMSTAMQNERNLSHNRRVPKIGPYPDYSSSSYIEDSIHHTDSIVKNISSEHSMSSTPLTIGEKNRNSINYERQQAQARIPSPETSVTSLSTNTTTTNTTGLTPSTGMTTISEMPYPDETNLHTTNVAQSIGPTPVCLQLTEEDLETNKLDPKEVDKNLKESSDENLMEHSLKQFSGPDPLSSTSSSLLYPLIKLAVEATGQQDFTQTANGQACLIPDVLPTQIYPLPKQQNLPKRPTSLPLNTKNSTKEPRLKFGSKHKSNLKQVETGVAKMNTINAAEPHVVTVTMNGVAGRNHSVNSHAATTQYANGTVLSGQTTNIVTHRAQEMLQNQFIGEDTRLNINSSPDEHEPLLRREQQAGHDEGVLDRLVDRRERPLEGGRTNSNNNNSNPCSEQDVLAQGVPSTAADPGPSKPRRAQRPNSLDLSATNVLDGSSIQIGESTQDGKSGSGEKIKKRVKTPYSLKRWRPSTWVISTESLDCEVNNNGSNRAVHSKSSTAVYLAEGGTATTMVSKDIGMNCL
In short: (§1)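 Radio-isotope P81 filtration format. Substrate + required cofactors in reaction buffer, kinase added, 2 h RT. Stop, wash with 0.1% phosphoric acid, detect. % inhibition vs DMSO; mean of duplicates where repeated.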

CDK7/cyclin H = molecular target: T2, CDK7/cyclin H (Homo sapiens, UniProt P50613)
T2 construct: purchased Reaction Biology Corp
T2 sequence (P50613 whole entry): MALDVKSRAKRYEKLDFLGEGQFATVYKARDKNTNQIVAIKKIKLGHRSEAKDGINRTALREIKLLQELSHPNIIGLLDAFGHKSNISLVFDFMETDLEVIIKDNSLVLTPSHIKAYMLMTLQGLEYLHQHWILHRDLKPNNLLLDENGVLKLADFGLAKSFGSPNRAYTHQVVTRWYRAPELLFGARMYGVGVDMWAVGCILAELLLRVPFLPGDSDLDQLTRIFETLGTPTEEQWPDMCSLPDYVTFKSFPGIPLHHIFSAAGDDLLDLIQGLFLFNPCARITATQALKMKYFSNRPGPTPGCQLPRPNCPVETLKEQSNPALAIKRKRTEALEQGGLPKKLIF
T2 sequence (P51946 whole entry partner): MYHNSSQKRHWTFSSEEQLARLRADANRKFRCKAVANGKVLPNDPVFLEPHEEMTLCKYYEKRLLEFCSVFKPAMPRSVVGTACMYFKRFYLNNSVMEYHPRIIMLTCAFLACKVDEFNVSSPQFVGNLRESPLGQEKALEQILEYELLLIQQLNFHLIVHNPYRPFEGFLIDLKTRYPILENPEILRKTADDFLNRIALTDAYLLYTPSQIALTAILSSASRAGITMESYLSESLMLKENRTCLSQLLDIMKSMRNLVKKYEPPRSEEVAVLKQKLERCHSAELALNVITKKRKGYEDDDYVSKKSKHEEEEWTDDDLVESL
T2 sequence (P51948 whole entry partner): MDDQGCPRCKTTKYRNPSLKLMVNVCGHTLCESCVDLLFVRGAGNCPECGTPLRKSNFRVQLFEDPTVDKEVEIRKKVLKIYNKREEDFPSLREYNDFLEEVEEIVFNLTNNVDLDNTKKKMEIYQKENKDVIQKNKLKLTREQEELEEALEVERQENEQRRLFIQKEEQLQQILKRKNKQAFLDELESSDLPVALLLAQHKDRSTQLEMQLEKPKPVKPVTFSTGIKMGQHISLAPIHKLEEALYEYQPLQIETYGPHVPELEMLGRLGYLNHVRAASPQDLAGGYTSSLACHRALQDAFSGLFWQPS
In short: as §1

ERBB2/HER2 = molecular target: T3, ERBB2/HER2 (Homo sapiens, UniProt P04626)
T3 construct: purchased Reaction Biology Corp
T3 sequence (P04626 23-1255): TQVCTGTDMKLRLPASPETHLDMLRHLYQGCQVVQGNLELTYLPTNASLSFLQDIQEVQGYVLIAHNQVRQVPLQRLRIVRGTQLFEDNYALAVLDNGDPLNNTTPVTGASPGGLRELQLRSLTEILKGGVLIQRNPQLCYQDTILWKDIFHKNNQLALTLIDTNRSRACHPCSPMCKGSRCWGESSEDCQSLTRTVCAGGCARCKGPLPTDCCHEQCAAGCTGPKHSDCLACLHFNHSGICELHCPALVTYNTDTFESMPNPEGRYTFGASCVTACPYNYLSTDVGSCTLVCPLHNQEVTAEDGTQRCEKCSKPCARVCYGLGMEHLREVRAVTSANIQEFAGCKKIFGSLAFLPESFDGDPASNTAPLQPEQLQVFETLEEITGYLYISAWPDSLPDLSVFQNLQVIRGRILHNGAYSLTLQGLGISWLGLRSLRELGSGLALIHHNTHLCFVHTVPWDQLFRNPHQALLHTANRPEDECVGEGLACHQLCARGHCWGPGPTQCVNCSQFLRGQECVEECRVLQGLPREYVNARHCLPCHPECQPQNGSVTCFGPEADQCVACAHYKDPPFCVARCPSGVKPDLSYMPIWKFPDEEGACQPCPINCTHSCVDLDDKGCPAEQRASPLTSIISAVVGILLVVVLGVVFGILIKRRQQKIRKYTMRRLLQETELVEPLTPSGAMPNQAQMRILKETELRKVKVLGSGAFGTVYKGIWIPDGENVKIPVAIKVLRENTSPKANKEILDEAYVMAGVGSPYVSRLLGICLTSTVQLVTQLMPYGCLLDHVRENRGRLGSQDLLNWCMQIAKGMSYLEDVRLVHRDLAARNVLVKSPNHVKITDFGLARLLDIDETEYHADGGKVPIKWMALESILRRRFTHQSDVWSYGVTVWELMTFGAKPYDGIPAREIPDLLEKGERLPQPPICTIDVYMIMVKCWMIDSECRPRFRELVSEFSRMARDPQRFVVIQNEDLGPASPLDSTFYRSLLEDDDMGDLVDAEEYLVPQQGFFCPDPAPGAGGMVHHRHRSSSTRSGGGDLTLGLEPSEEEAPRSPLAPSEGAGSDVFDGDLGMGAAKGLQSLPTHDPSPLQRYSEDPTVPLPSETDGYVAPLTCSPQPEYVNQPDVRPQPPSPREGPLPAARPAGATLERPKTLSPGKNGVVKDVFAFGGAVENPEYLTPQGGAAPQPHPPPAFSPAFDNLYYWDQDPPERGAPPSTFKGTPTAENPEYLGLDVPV
In short: as §1

[1] = read-out: % Enzyme Activity (relative to DMSO controls) Run 1
[2] = read-out: % Enzyme Activity (relative to DMSO controls) Run 2

**Q.** `C=CC(=O)Nc1cccc(Nc2nc(Nc3ccc(OCCOC)c(F)c3)ncc2F)c1` [Compound 2] was tested. Which inhibition at 3 µM (BMPR2) did it give?
**A.** 16.2%

**Q.** What about the remaining activity at 3 µM (BMPR2; [1]) of the same molecule?
**A.** 83.8%

**Q.** And the remaining activity at 3 µM (BMPR2; [2])?
**A.** 83.8%

**Q.** What about the inhibition at 3 µM (CDK7/cyclin H) of the same molecule?
**A.** 2.36%

**Q.** And the remaining activity at 3 µM (CDK7/cyclin H; [1])?
**A.** 98.1%

**Q.** What about the remaining activity at 3 µM (CDK7/cyclin H; [2]) of the same molecule?
**A.** 97.2%

**Q.** And the inhibition at 3 µM (ERBB2/HER2)?
**A.** 61.3%

**Q.** And the remaining activity at 3 µM (ERBB2/HER2; [1])?
**A.** 39.8%

**Q.** What about the remaining activity at 3 µM (ERBB2/HER2; [2]) of the same molecule?
**A.** 37.5%
